Columns and labels:
[1] = tested on: Male CD-1 mice; assay: Dizocilpine-induced locomotor hyperactivity in mice; type: in vivo
Procedure: Potential antipsychotic activity was tested for the representative compound 24 in mouse model of psychosis, involving the induction of locomotor hyperactivity by administering psychotomimetic substance-dizocilpine. The ability of a test compound to remove this effect is a measure of potential antipsychotic activity.
Male CD-1 mice were group-housed for 2-3 day period in polycarbonate Makrolon type 3 cages (dimensions 26.5×15×42 cm) in an environmentally controlled, experimental room (ambient temperature 22-20° C.; relative humidity 50-60%; 12:12 light:dark cycle, lights on at 8:00), in groups of 15. Standard laboratory food (Ssniff M-Z) and filtered water were freely available. On the day before experiments the equipment produced “white noise” was turned on for 30 minutes and mice were weighted exact to 1 g. Animals were assigned randomly to treatment groups. All the experiments were performed by two observers unaware of the treatment applied between 9:00 and 14:00 on separate groups of animals. […]
The locomotor activity was recorded with an Opto M3 multi-channel activity monitor (MultiDevice Software v.1.3, Columbus Instruments). The mice were individually placed in plastic cages (22×12×13 cm) for 30 minutes habituation period, and then the crossings of each channel (ambulation) were counted during 1 h with data recording every 5 minutes. […]

[2] = tested on: Swiss albino mice; assay: Four-plate test in Swiss albino mice; type: in vivo
Procedure: Within 24 h prior to testing, animals were habituated to experimental conditions. For this purpose mice in home cages were transferred to the experimental room for 15 min., while maintaining the lighting and the “white noise” characteristic for the experiment.
The four-plate test (BIOSEB, France) was performed in a cage (25×18×16 cm) floored by four identical rectangular metal plates (8×11 cm) separated from one another by a gap of 4 mm. The top of the cage was covered by a transparent Perspex lid that prevented escape behaviour. The plates were connected to a device that generated electric shocks. Animals were placed individually in the experimental cage and following a 15-s habituation period, the animal's motivation to explore a novel environment was suppressed by an electric foot shock (0.8 mA, 0.5 s) every time it moved from one plate is to another during a 1-minute test session. This action is referred to as a ‘punished crossing’, and was followed by a 3 s shock interval, during which the animal could move across plates without receiving a shock. The measure of anxiolytic activity of the compound was the number of ‘punished crossings’ from one plate to the adjacent during 1-min test period.

[3] = target: 5-HT2A receptor, human recombinant (Homo sapiens, UniProt P28223); assay: Binding assay, 5-HT2A receptor ([3H]ketanserin)
Sequence of 5-HT2A receptor, human recombinant (P28223 whole entry, looked up): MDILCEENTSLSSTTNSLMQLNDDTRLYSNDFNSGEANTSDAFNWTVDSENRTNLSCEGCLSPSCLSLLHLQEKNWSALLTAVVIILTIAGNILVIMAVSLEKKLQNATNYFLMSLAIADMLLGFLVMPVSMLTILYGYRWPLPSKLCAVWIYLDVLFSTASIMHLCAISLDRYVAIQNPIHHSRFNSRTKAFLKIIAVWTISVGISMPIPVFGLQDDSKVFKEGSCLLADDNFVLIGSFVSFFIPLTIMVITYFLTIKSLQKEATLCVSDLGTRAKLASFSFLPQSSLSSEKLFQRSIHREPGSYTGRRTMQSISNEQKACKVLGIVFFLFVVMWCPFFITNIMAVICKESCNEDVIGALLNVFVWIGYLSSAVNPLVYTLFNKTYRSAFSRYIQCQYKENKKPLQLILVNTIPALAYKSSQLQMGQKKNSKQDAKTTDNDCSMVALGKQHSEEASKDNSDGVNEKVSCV
Procedure: Moreover, ability of the compounds of the invention to block potassium channel hERG was tested.
The specific ligand binding to the receptors is defined as the difference between the total binding and the non-specific binding determined in the presence of an excess of unlabelled ligand.
The inhibition constants (Ki) were calculated using the Cheng Prusoff equation (Ki=IC50/(1+(L/KD)), where L=concentration of radioligand in the assay, and KD=affinity of the radioligand for the receptor). A Scatchard plot is used to determine the Kd. The IC50 values (concentration causing a half-maximal inhibition of control specific binding) and Hill coefficients (nH) were determined by non-linear regression analysis of the competition curves generated with mean replicate values using Hill equation curve fitting (Y=D+[(A−D)/(1+(C/C50)^nH)], where Y=specific binding, D=minimum specific binding, A=maximum specific binding, C=compound concentration, C50=IC50, and nH=slope factor).

## O=C1CCc2ccc(OCCCCN3CCN(c4cccc5c4ccn5S(=O)(=O)c4ccccc4)CC3)cc2N1 [Compound 24, 7-(4-(4-(1-(Phenylsulphonyl)-1H-indol-4-yl)piperazin-1-yl)butoxy)-3,4-dihydroquinolin-2(1H)-one]
[1]
  activity in words, dizocilpine-induced locomotor hyperactivity test: active
[1]; i.p., 30 minutes before the experiment
  MED (minimum effective dose), dizocilpine-induced locomotor hyperactivity: 10 mg/kg
[2]; Swiss albino mice
  MED (minimum effective dose), four-plate test: 5 mg/kg
[2]; mice
  activity in words, four-plate test: active

## O=C1CCc2ccc(OCCCCN3CCN(c4cccc5c4ccn5Cc4cccc(Cl)c4)CC3)cc2N1 [Compound 67, 7-[4-[4-[1-[(3-Chlorophenyl)methyl]indol-4-yl]piperazin-1-yl]butoxy]-3,4-dihydro-1H-quinolin-2-one]
[3]
  Ki: 2.4 nM

Reference: patent US20140121216A1, “INDOLEAMINE DERIVATIVES FOR THE TREATMENT OF CENTRAL NERVOUS SYSTEM DISEASES” (Adamed Sp. z o.o., priority 2011, published 2014)
